Experimental data from PubChem BioAssay AID1159585 (Gregory J. Crowther, 2016).

Target: Calcium-dependent protein kinase 1 (Plasmodium falciparum (isolate 3D7)) (UniProt P62344)
Experiment: PfCDPK1 kinase inhibitors, biochemical, TCAMS library (AID 1159585);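 also: inhibitors leave more ATP so luminescence rises with inhibition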
Conditions: recombinant PfCDPK1, Kinase-Glo ATP depletion luminescence

Calcium-dependent protein kinase 1 (Plasmodium falciparum (isolate 3D7)), sequence (P62344 whole entry, looked up): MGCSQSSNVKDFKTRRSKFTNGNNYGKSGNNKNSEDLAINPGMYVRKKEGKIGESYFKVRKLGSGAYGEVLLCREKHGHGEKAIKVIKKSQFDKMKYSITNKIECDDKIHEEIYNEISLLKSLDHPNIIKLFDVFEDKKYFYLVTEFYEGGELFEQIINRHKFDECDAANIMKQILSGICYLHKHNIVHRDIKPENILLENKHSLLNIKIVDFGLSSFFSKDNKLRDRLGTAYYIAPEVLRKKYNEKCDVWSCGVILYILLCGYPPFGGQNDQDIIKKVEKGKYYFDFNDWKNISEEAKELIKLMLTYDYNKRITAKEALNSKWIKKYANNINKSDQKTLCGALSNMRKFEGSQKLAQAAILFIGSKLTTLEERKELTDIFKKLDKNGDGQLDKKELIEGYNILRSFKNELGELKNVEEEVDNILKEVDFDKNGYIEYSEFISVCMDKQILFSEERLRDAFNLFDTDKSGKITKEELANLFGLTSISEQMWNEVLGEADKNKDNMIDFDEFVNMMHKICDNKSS

Row | IC50 [µM] | Compound
1 | 0.058 | NC(=O)c1ccccc1Nc1nc(Nc2cccc(N3CCN(CCO)CC3)c2)ncc1Cl
2 | 0.261 | CN1CCN(CCCNCc2cccc(Nc3nccc(Nc4ccc(Oc5ccccc5)cc4)n3)c2)CC1
3 | 0.168 | CN(C)CCOc1ccc(-c2cc(-c3ccc(Cl)c(O)c3)c(-c3ccnc(N)n3)o2)cc1
4 | 0.051 | CCn1c(-c2nonc2N)nc2c(-c3ccc(CO)o3)ncc(OCCCN)c21
5 | 0.092 | O=C(Nc1cccc(-c2nn3ccccc3c2-c2ccnc(Nc3ccc(C(=O)N4CCOCC4)cc3)n2)c1)c1c(F)cccc1F
6 | 0.845 | CN(C)CCNCc1cccc(-c2ccc3c(Nc4ccc(Oc5ccccn5)cc4)ccnc3c2)c1
7 | 0.159 | COc1cc(-c2nc(C(C)(C)CN)[nH]c2-c2ccncc2)ccc1Br
8 | 0.705 | c1cncc(Oc2ccc(Nc3ccnc4cc(-c5cccc(CNCCN6CCOCC6)c5)ccc34)cc2)c1
9 | 0.425 | CC(=O)Nc1cccc(Nc2nccc(Nc3ccc(Oc4ccccc4)cc3)n2)c1
10 | 0.383 | Fc1cc(Cl)ccc1Nc1ccnc2cc(-c3ccc(CNCCN4CCOCC4)o3)ccc12
11 | 0.04 | O=C(Nc1c(F)cccc1F)c1cccc(-c2nn3ccccc3c2-c2ccnc(Nc3cccc(-c4cnco4)c3)n2)c1
12 | 0.967 | COc1ccc(Nc2ncc(OC)c(Nc3ccccc3C(N)=O)n2)cc1N1CCN(C)CC1
13 | 0.145 | CCNC(=O)Nc1ccc(-c2cnc(N)c(-c3nc4ccc(OC)cc4[nH]3)c2)cc1
14 | 0.375 | NCc1ccc(Nc2nccc(Nc3ccc(-c4ccccc4)cc3)n2)cc1
15 | 0.471 | CC(C)(CNC(=O)C1CCN(CCOc2ccc(Cl)cc2)CC1)c1nc(-c2ccc(Cl)c(O)c2)c(-c2ccncc2)[nH]1
16 | 0.22 | O=C(NCCN1CCC(c2ccncc2)CC1)c1cccc(Nc2nccc(Nc3ccc(Oc4ccccc4)cc3)n2)c1
17 | 0.283 | O=C(NCC(c1ccc(C(F)(F)F)cc1)N1CCCC1)c1cc(-c2ccncc2)c(-c2cccc(O)c2)o1 (configuration not stated)
18 | 0.072 | CCn1c(-c2nonc2N)nc2c(-c3cccc(NC(=O)Nc4ccccc4Cl)c3)ncc(OCCCN)c21
19 | 0.015 | CCn1c(-c2nonc2N)nc2c(-c3cccc(NC(=O)Nc4cccc(C(F)(F)F)c4)c3)ncc(OCCCN)c21
20 | 0.503 | OC1CCC(Nc2ccc3ncc(-c4ccc(Cl)cc4)n3n2)CC1 (configuration not stated)
21 | 0.038 | O=C(Nc1cccc(-c2nn3ccccc3c2-c2ccnc(Nc3ccc(NCCCN4CCOCC4)c(F)c3)n2)c1)c1c(F)cccc1F
22 | 0.192 | CC(C)(CNC(=O)[C@@H]1CCCCN1)c1nc(-c2ccc(Cl)c(O)c2)c(-c2ccncc2)[nH]1
23 | 0.294 | CCOC(=O)c1cccc(NC(=O)Nc2cccc(-c3ncc(OCCCN)c4c3nc(-c3nonc3N)n4CC)c2)c1

Row | IC50 [µM] | Compound
24 | 0.798 | N#CCc1ccc(Nc2nccc(Nc3ccc(Oc4ccccc4)cc3)n2)cc1
25 | 0.185 | CN(C)Cc1ccc(-c2ccc3c(Nc4ccc(Cl)cc4F)ccnc3c2)o1
26 | 0.232 | CN1CCN(c2ccc(Nc3nccc(-c4cnn5ncccc45)n3)cc2Cl)CC1
27 | 0.145 | CNC(=O)c1ccccc1Nc1nc(Nc2cccc(CS(C)(=O)=O)c2)ncc1C
28 | 0.379 | COc1ccc(-c2cnc3ccc(NC4CCC(O)CC4)nn23)cn1 (configuration not stated)
29 | 0.16 | Cc1ccc(Nc2nc3cc(N(C)c4ccnc(Nc5cccc(CCS(C)(=O)=O)c5)n4)ccc3n2C)cc1
30 | 0.271 | CCn1c(-c2nonc2N)nc2c(-c3cccc(Cl)c3)ncc(OCCCNCc3cnc(C)nc3N)c21
31 | 0.015 | CC(=O)Nc1cccc(Nc2nccc(-c3c(-c4cccc(NC(=O)c5c(F)cccc5F)c4)nn4ncccc34)n2)c1
32 | 0.076 | Cc1cc(Nc2ncc(Cl)c(Nc3ccccc3C(N)=O)n2)n[nH]1
33 | 0.242 | Cc1ccc(Nc2nccc(Nc3ccc4c(c3)nc(Nc3cc(C(C)(C)C)on3)n4C)n2)cc1S(C)(=O)=O
34 | 0.023 | Cc1cccc(Nc2nc(N[C@@H]3CCCNC3)nc3cc[nH]c(=O)c23)c1
35 | 0.182 | CCn1c(-c2nonc2N)nc2c(-c3cccc(NC(=O)Nc4cccc(C#N)c4)c3)ncc(OCCCN)c21
36 | 0.429 | CCN(CC)CCCOc1ccc(Nc2nccc(-c3c(-c4cccc(NC(=O)c5c(F)cccc5F)c4)nn4ccccc34)n2)cc1F
37 | 0.095 | CC(c1cccc(Nc2nccc(-c3c(-c4cccc(NC(=O)c5c(F)cccc5F)c4)nn4ncccc34)n2)c1)S(C)(=O)=O (configuration not stated)
38 | 0.026 | O=C(NC1CC1)c1ccc(Nc2nccc(-c3c(-c4cccc(NC(=O)c5c(F)cccc5F)c4)nn4ccccc34)n2)cc1
39 | 0.18 | O=C(NCCCN1CCOCC1)c1cccc(Nc2nccc(Nc3ccc(Oc4ccccc4)cc3)n2)c1
40 | 0.979 | COCCNCc1cccc(-c2ccc3c(Nc4ccc(Oc5ccccc5)cc4)ccnc3c2)c1
41 | 0.165 | Nc1ncnc2occ(-c3ccc(NC(=O)Nc4cc(C(F)(F)F)ccc4F)cc3)c12
42 | 0.492 | NC[C@H](CC1CCCCC1)NC(=O)c1ccc(-c2ccnc3[nH]ccc23)s1
43 | 0.044 | CCn1c(-c2nonc2N)nc2c(-c3cccc(NC(=O)Nc4ccc(Cl)cc4)c3)ncc(OCCCN)c21
44 | 0.02 | NS(=O)(=O)CCc1cccc(Nc2nccc(-c3c(-c4cccc(NC(=O)c5c(F)cccc5F)c4)nn4ccccc34)n2)c1
45 | 0.436 | COCCNCc1cccc(-c2ccc3c(Nc4cc(O)c(Cl)cc4F)ccnc3c2)c1
46 | 0.012 | CN1CCN(c2ccc(Nc3ncc(C#N)c(Nc4ccccc4C(N)=O)n3)cc2)CC1

Row | IC50 [µM] | Compound
47 | 0.387 | CS(=O)(=O)Nc1cccc(-c2cnc3[nH]cc(-c4cccc(CN)c4)c3c2)c1
48 | 0.045 | CNC(=O)c1ccccc1Nc1nc(Nc2ccc(N3CCN(C)CC3)nc2)ncc1C
49 | 0.115 | Oc1cccc(-c2cnc3ccc(NCc4ccc(F)cc4)nn23)c1
50 | 0.312 | COc1ccc(Nc2ncc3c(-c4cccc(NC(=O)Cc5cccc(O)c5)c4)c[nH]c3n2)cc1OC
51 | 0.701 | c1ccc(Oc2ccc(Nc3ccnc(Nc4ccc(OCCN5CCCCC5)cc4)n3)cc2)cc1
52 | 0.374 | CN(C)CCNCc1ccc(-c2ccc3c(Nc4ccc(Cl)cc4F)ccnc3c2)o1
53 | 0.959 | CCn1c(-c2nonc2N)nc2c(-c3cccc(NC(=O)Nc4ccc(C(F)(F)F)cc4)c3)ncc(OCCCN)c21
54 | 0.01 | Cc1cc(Nc2ncc(C#N)c(Nc3ccccc3C(N)=O)n2)ccc1N1CCN(C)CC1
55 | 0.098 | COc1ccc(Nc2ncc3c(-c4cccc(NC(=O)Cc5ccc(O)cc5)c4)c[nH]c3n2)cc1OC
56 | 0.022 | O=C(Nc1cccc(-c2nn3ccccc3c2-c2ccnc(Nc3ccc(-c4ccn[nH]4)cc3)n2)c1)c1c(F)cccc1F
57 | 0.047 | CNC(=O)c1ccccc1Nc1nc(Nc2ccc(CCN3CCN(C)CC3)cc2)ncc1Cl
58 | 0.25 | O=C(NCCN1CCCCC1)c1cccc(Nc2nccc(Nc3ccc(Oc4ccccc4)cc3)n2)c1
59 | 0.191 | Cc1nc(-c2cccc(Nc3ccnc4cc(-c5nccs5)ccc34)c2)no1
60 | 0.131 | CN1CCN(Cc2ccc(-c3ccc4c(Nc5cc(O)c(Cl)cc5F)ccnc4c3)o2)CC1
61 | 0.032 | CCn1c(-c2nonc2N)nc2c(-c3cccc(NC(=O)Nc4ccccc4OC)c3)ncc(OCCCN)c21
62 | 0.042 | CCn1c(-c2nonc2N)nc2c(-c3ccccc3)ncc(OCCCNCCCN3CCOCC3)c21
63 | 0.144 | CC(C)(NCc1ncc[nH]1)c1nc(-c2ccc(Cl)c(O)c2)c(-c2ccncc2)[nH]1
64 | 0.035 | CN1CCN(c2ccc(Nc3nccc(-c4c(-c5cccc(NC(=O)c6c(F)cccc6F)c5)nn5ccccc45)n3)cc2)CC1
65 | 0.235 | CCn1c(-c2nonc2N)nc2c(-c3cccc(NC(=O)Nc4ccc(C#N)cc4)c3)ncc(OCCCN)c21
66 | 0.139 | CN1CCN(CCCNCc2ccc(Nc3nccc(Nc4ccc(Oc5ccccc5)cc4)n3)cc2)CC1
67 | 0.013 | CC(C)(CN)c1cc(-c2ccc(Cl)c(O)c2)c(-c2ccncc2)o1
68 | 0.029 | NCC(NC(=O)c1ccc(-c2c[nH]c3ncccc23)s1)c1ccccc1 (configuration not stated)
69 | 0.31 | COc1ccc(-c2cnc3ccc(N4CCCC4)nn23)cc1OC

Row | IC50 [µM] | Compound
70 | 0.296 | Cc1cccc2[nH]c(-c3cc(-c4cn[nH]c4)cnc3N)nc12
71 | 0.044 | Cc1csc(-c2ncc(OC[C@@H](N)Cc3ccccc3)cc2-c2ccc3n[nH]c(C)c3c2)c1
72 | 0.033 | O=c1[nH]ccc2nc(N[C@@H]3CCNC3)nc(Nc3cc(Cl)cc(Cl)c3)c12
73 | 0.402 | CN(C)Cc1cccc(-c2cc3c(-c4cnn(C)c4)c(Cl)cnc3[nH]2)c1
74 | 0.157 | COc1ccc(-c2cnn3ccc(Nc4cc(OC)c(OC)c(OC)c4)nc23)cc1OC
75 | 0.246 | CNC(=O)c1ccccc1Nc1nc(Nc2ccc(C(=O)O)cc2)ncc1Cl
76 | 0.094 | O=C(NCCCN1CCCCC1)c1ccc(Nc2nccc(Nc3ccc(Oc4ccccc4)cc3)n2)cc1
77 | 0.684 | CN(C)CCOc1ccc(-c2cc(-c3ccnc(N)n3)c(-c3ccc(Cl)c(O)c3)o2)cc1
78 | 0.186 | Cc1nnc(-c2cccc(Nc3ccnc4cc(-c5nccs5)ccc34)c2)o1
79 | 0.406 | CN1CCN(Cc2ccc(-c3ccc4c(Nc5ccc(Cl)cc5F)ccnc4c3)o2)CC1
80 | 0.801 | CN1CCN(Cc2cccc(Nc3nccc(Nc4ccc(Oc5ccccc5)cc4)n3)c2)CC1
81 | 0.145 | COc1cc2nccc(Nc3ccc(Oc4ccccc4)cc3)c2cc1OC
82 | 0.566 | Cc1cccc(Nc2nc(NCCCCN)nc3cc[nH]c(=O)c23)c1
83 | 0.15 | COCCNCc1ncsc1-c1ccc2c(Nc3cc(O)c(Cl)cc3F)ccnc2c1
84 | 0.379 | CCn1c(-c2nonc2N)nc2c(-c3cccc(NC(=O)Nc4cccc(Cl)c4)c3)ncc(OCCCN)c21
85 | 0.966 | CS(=O)(=O)CCNCc1cccc(-c2ccc3c(Nc4ccc(Oc5cccnc5)cc4)ccnc3c2)c1
86 | 0.135 | O=C(NCCN1CCC(c2ccncc2)CC1)c1ccc(Nc2nccc(Nc3ccc(Oc4ccccc4)cc3)n2)cc1
87 | 0.275 | COc1cccc(CNCC(C)(C)c2nc(-c3ccc(Cl)c(O)c3)c(-c3ccncc3)[nH]2)c1
88 | 0.049 | CNCC(C)(C)c1nc(-c2ccc(Cl)c(O)c2)c(-c2ccncc2)[nH]1
89 | 0.186 | NC(=O)c1ccccc1Nc1nc(Nc2ccn[nH]2)ncc1Cl
90 | 0.664 | CC(C)(CNC(=O)C1CCN(CCOc2ccc(F)c(F)c2)CC1)c1nc(-c2ccc(Cl)c(O)c2)c(-c2ccncc2)[nH]1
91 | 0.048 | NS(=O)(=O)c1ccc(Nc2nccc(-c3c(-c4cccc(NC(=O)c5c(F)cccc5F)c4)nn4ccccc34)n2)cc1
92 | 0.114 | Cn1c(Nc2cc(C(C)(C)C)on2)nc2cc(Nc3ccnc(Nc4cccc(CS(C)(=O)=O)c4)n3)ccc21
